This is an account of results in BindingDB's records for doi:10.1016/j.bmc.2015.01.060 (University of Florida, 2015).

Assay [1] deals with T1, 5-hydroxytryptamine receptor 2C (Homo sapiens, UniProt P28335).
T1 sequence (P28335 whole entry): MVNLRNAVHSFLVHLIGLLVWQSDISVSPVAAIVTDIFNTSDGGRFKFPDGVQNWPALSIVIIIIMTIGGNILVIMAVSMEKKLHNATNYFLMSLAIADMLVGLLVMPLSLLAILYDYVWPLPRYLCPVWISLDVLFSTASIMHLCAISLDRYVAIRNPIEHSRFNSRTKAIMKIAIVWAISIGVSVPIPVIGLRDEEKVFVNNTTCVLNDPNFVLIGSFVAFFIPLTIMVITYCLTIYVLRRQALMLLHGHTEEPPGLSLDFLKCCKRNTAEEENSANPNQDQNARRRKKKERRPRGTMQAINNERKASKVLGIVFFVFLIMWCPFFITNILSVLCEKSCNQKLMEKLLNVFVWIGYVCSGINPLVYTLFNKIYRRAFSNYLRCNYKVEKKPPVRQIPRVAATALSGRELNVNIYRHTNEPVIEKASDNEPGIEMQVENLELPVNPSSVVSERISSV
The assay can be described thus: Displacement of [3H]Mesulergine from human 5-HT2C-INI receptor expressed in HEK293 cells by scintillation counting analysis.

Assay [2] deals with 5-hydroxytryptamine receptor 2B (Homo sapiens, UniProt P41595). The assay can be described thus: Displacement of [3H]Mesulergine from human 5-HT2B receptor expressed in HEK293 cells by scintillation counting analysis.
Chain of 5-hydroxytryptamine receptor 2B (P41595 whole entry): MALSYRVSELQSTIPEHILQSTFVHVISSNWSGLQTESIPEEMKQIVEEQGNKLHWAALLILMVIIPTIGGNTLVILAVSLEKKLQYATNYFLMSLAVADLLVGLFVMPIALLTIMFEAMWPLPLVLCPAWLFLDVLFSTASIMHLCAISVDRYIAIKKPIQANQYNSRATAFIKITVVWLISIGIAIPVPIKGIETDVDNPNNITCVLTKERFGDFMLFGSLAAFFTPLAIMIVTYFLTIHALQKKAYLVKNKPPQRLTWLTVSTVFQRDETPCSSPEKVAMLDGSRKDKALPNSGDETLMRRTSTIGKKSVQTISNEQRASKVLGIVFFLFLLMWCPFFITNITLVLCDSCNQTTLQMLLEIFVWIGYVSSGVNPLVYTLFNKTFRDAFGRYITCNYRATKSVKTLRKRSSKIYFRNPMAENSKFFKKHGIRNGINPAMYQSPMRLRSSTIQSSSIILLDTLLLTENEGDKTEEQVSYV

In the case of `CN(C)[C@H]1Cc2ccccc2[C@H](c2ccc([N+](=O)[O-])cc2)C1`, the results for the Ki in assay [1] and in assay [2] were 1000 nM and 4100 nM, respectively.
